Data reported in patent US20020107302A1, “Monomeric dye inkjet printing ink formulations for invisible marking / identification” (priority 2000, published 2002).

Assay: Solubility or dispersibility of monomeric dye in vehicle systems
[1] = 50/50 acetone/water, 600 ppm dye
[2] = Methyl ethyl ketone, 600 ppm dye
[3] = Water with 1% ammonium hydroxide, 600 ppm dye
[4] = Water, 0.06% (by weight) or 600 ppm dye

Measured: Solubility or Dispersibility

COC(=O)c1cc([O][Al]2[n]3c4c5ccccc5c3/N=C3N=C(/N=c5/c6ccccc6/c([n]52)=N/C2=NC(=N\4)/c4ccccc42)c2ccccc2\3)cc(C(=O)OC)c1 [Dye II, Aluminum phthalocyanine(3,5-dicarbo-methoxyphenoxide)]
Partially Soluble: [1] | Acetone, 600 ppm dye | Ethyl acetate, 600 ppm dye | [2]
Soluble: Ethanol, 600 ppm dye | Propylene glycol, 600 ppm dye
Insoluble: Methyl acetate, 600 ppm dye | [3] | [4]

CCN1C(=CCC2CCC(C=CC3Sc4ccc(Cl)cc4N3CC)=C2N(c2ccccc2)c2ccccc2)Sc2ccc(Cl)cc21 (centres unmarked) [Dye V, 5,5-Dichloro-11-(diphenylamino)-3,3-diethyl-10,12-ethylenethiatri-carbocyanine perchlorate]
Partially Soluble: Methyl acetate, 600 ppm dye
Insoluble: Ethyl acetate, 600 ppm dye | [3] | [4]
Soluble: [1] | Acetone, 600 ppm dye | Ethanol, 600 ppm dye | [2]

CN1C(=CC=CC=CC=CC2=[N+](C)c3ccc4ccccc4c3C2(C)C)C(C)(C)c2c1ccc1ccccc21.[O-][Cl+3]([O-])([O-])[O-] [Dye IV, 1,1,3,3,3,3-Hexamethyl-4,4,5,5-dibenzo-2,2-indotricarbocyanine perchlorate]
Soluble: [1] | Acetone, 600 ppm dye | Ethanol, 600 ppm dye | Ethyl acetate, 600 ppm dye | Methyl acetate, 600 ppm dye | [2] | Propylene glycol, 600 ppm dye
Insoluble: [3] | [4]

CCCCC(CC)COC(=O)c1ccc(Oc2cccc3c2-c2nc-3nc3[nH]c(nc4nc(nc5[nH]c(n2)c2cccc(Oc6ccc(C(=O)OCC(CC)CCCC)cc6)c52)-c2cccc(Oc5ccc(C(=O)OCC(CC)CCCC)cc5)c2-4)c2cccc(Oc4ccc(C(=O)OCC(CC)CCCC)cc4)c32)cc1 [Dye III, 1(4),8(11),15(18),22(2S)-tetraks((4-(2-ethylhexoxy)carbonyl)phenoxy)phthalocyanine]
Insoluble: [1] | Ethanol, 600 ppm dye | Propylene glycol, 600 ppm dye | [3] | [4]
Soluble: Ethyl acetate, 600 ppm dye | Methyl acetate, 600 ppm dye
Partially Soluble: Acetone, 600 ppm dye | [2]
